System: Acinetobacter baumannii (Ab23)
Assay: MIC shift assay of antibiotics (broth microdilution)
Format: cell-based
Conditions: compound concentration 2 μM; fold shift of colistin MIC; nc = no changeover or no shift
Protocol: Minimum inhibitory concentration (MIC) shift assays were performed to determine if the test compounds could alter the MIC of existing antibacterial drugs (e.g., ciprofloxacin and colistin) for E. coli, Acinetobacter baumannii, Klebsiella pneumoniae, Pseudomonas aeruginosa, and Enterobacter cloacae. The MIC shift assay is based on the standard broth microdilution MIC determination protocol of Wiegand et al, Nat Protoc. 3(2):163-75 (2008), with slight modifications that allow for the screening of up to seven test compounds in a single plate.
On the day before an assay, bacteria were grown overnight in cation-adjusted Mueller Hinton broth (CAMHB; Teknova, Hollister, Calif.) at 37° C. in an orbital shaker and sub-cultured at a 1:200 dilution the following morning. The cells were grown to OD600=0.5 to 0.8 and then diluted to OD600=0.01. From a serial dilution of each antibiotic at (50 μL of 2× concentrated stock solutions) several concentrations were added to the wells of a sterile, transparent round-bottom 96-well plate (Phenix Research Products, Candler, N.C.), and diluted cells (50 μL) were added to the plates for a starting OD600 of 0.005. […] A row of wells lacking test compound but containing the antibiotic was used to determine the MIC of that antibiotic alone. A column of wells lacking both antibiotic and test compound served as a growth control, and an additional column containing only CAMHB was included as a sterile blank control.
The plates were incubated for 18 to 20 h at 37° C. in an orbital shaker, and the cell density (OD600) was determined the following day in a microplate reader (PolarStar Optima, BMG Labtech). The MIC shift was determined by comparing the MIC of the antibiotic alone to the MIC of the antibiotic plus test compound.

Structure (SMILES) | colistin MIC shift, Ab23 at (compd concentration)
Cc1cccc2c(NCCCN(C)C)nc(-c3cc(-c4ccccc4F)cc(C(F)(F)F)c3)nc12 [compound 341] | 8-16x
Cc1cccc2c(NCCCN(C)C)nc(-c3cccc(-c4cc(F)cc(C(F)(F)F)c4)c3)nc12 [compound 344] | 8-16x
O=C(Nc1ccc(Cl)c(Cl)c1)c1c[nH]c2ccc(Br)cc12 [compound 420] | 16x
CN(C)CCCNc1nc(-c2cc(-c3ccccc3)cc(C(F)(F)F)c2)nc2c(Cl)cccc12 [compound 340] | 8-16x

Same assay, conditions: compound concentration 4 μM; fold shift of colistin MIC; nc = no changeover or no shift

Structure (SMILES) | colistin MIC shift, Ab23 at (compd concentration)
CN(C)CCCNc1nc(-c2cccc(-c3ccccc3)c2)nc2c(Cl)cccc12 [compound 486] | 4x
N#Cc1ccc2[nH]cc(/C=C/c3ccc(Cl)c(Cl)c3)c2c1 [compound 375] | 2x
Cc1cccc2c(NCCCN(C)C)nc(-c3cn(Cc4cccc(Cl)c4)c4c(Cl)cccc34)nc12 [compound 579] | 16x
Cc1cccc2c(NCCCN(C)C)nc(-c3cccc(-c4cccc(Cl)c4Cl)c3)nc12 [compound 484] | 16x
CCN(CC)CCCC(C)Nc1nc(-c2cn(Cc3ccccc3)c3c(Cl)cccc23)nc2c(Cl)cccc12 (racemic) [compound 566] | 8x
CN1CCN(CC(=O)n2cc(-c3ccc(Cl)c(Cl)c3)c3cc(Cl)ccc32)CC1 [362g] | 16x
Cc1cccc2c(NCCCN(C)C)nc(-c3ccc4cc(Cl)c(Cl)cc4c3)nc12 [compound 444] | 16x
COc1ccc2c(NCCCN(C)C)nc(/C=C/c3ccc(Cl)c(Cl)c3)nc2c1C [compound 467, (E)-N^1-(2-(3,4-dichlorostyryl)-7-methoxy-8-methylquinazolin-4-yl)-N^3,N^3-dimethylpropane-1,3-diamine] | 16x
Cc1c(Cl)ccc2c(NCCCN(C)C)nc(-c3cc(Br)cc(C(F)(F)F)c3)nc12 [compound 511] | 64x
CN(C)CCCNc1nc(-c2csc3ccc(Cl)cc23)nc2c(Cl)cccc12 [compound 592] | 32x
CCN(CC)CCCC(C)Nc1nc(/C=C/c2ccc(Cl)c(Cl)c2)nc2cc(Cl)ccc12 (racemic) [compound 325] | 4x
CN(C)CC(=O)n1cc(/C=C/c2ccc(Cl)c(Cl)c2)c2cc(Br)ccc21 [362e] | 32x
CCN(CC)CCCC(C)Nc1nc(-c2cn(Cc3cccc(Cl)c3)c3c(Cl)cccc23)nc2c(C)cccc12 (racemic) [compound 578] | 16x
CCN(CC)CCCC(C)Nc1nc(-c2cn(Cc3ccc(Cl)cc3)c3c(Cl)cccc23)nc2c(C)cccc12 (racemic) [compound 576] | 8x
Fc1ccc2[nH]cc(/C=C/c3ccc(Cl)c(Cl)c3)c2c1 [compound 368] | 16-32x
FC(F)(F)c1cccc2[nH]cc(/C=C/c3ccc(Cl)c(Cl)c3)c12 [compound 371] | 32x
Cc1ccc(Cn2cc(-c3nc(NCCCN(C)C)c4cccc(C)c4n3)c3cccc(Cl)c32)cc1 [compound 573] | 16x
CCN(CC)CCCC(C)Nc1nc(-c2cc(-c3cccc(C(F)(F)F)c3)cc(C(F)(F)F)c2)nc2c(C)cccc12 (centres unmarked) [compound 493] | 16x
Cc1cccc(Cn2cc(-c3nc(NCCCN(C)C)c4cccc(C)c4n3)c3cccc(Cl)c32)c1 [compound 575] | 16x

Structure (SMILES) | colistin MIC shift, Ab23 at (compd concentration)
CN(C)CCCNc1nc(/C=C/c2ccc(F)c(F)c2)nc2c(C(F)(F)F)cccc12 [compound 330] | 2x
CN(C)CCCN(C)c1nc(/C=C/c2ccc(Cl)c(Cl)c2)nc2cc(Cl)c(Cl)cc12 [compound 327] | 8-16x
CCN(CC)CCCC(C)Nc1nc(/C=C/c2ccc(Cl)c(Cl)c2)nc2c(Br)cccc12 (racemic) [compound 316] | 2-8x
CCN(CC)CCCC(C)Nc1nc(/C=C/c2ccc(Cl)c(Cl)c2)nc2c(Cl)cccc12 (racemic) [compound 320] | 2x
CN(C)CCCNc1nc(-c2cccc(-c3cccc(Cl)c3Cl)c2)nc2c(Cl)cccc12 [compound 490] | 16x
Cc1cccc2c(NCCCN(C)C)nc(-c3cc(-c4ccccc4C(F)(F)F)cc(C(F)(F)F)c3)nc12 [compound 509] | 64x
O=[N+]([O-])c1ccc2[nH]cc(/C=C\c3ccc(Cl)c(Cl)c3)c2c1 [compound 380] | 8x
CCN(CC)CCCC(C)Nc1nc(-c2cccc(-c3ccc(C(F)(F)F)c(F)c3)c2)nc2c(C)cccc12 (centres unmarked) [compound 476] | 16x
CNCCCNc1nc(-c2cn(Cc3ccccc3)c3c(Cl)cccc23)nc2c(C)cccc12 [compound 580] | 8x
Clc1ccc(/C=C/c2c[nH]c3cc(Cl)c(Cl)cc23)cc1Cl [compound 374] | 16x
Fc1ccc2c(/C=C/c3cc(Cl)c(Cl)c(Cl)c3)c[nH]c2c1 [compound 397] | 8x
Cc1cc(Br)cc2c(NCCCN(C)C)nc(-c3cc(Br)cc(C(F)(F)F)c3)nc12 [524g] | 16x
Clc1ccc(CCc2c[nH]c3ccc(Br)cc23)cc1Cl [compound 411] | 8x
CN(C)CCCNc1nc(-c2cc(Br)cc(C(F)(F)F)c2)nc2ccc(Br)cc12 [compound 515] | 8x
Clc1ccc(NCc2c[nH]c3ccc(Br)cc23)cc1Cl [compound 418] | 16 x
FC(F)(F)c1cccc(-c2ccc3[nH]cc(-c4ccc(Cl)c(Cl)c4)c3c2)c1 [compound 438] | 2x
CCN(CC)CCCC(C)Nc1nc(-c2cn(Cc3ccccc3)c3c(Cl)cccc23)nc2c(F)cccc12 (racemic) [compound 564] | 4x
CCN(CC)CCCC(C)Nc1nc(-c2cccc(-c3ccccc3)c2)nc2cc(C(F)(F)F)ccc12 (centres unmarked) [compound 479] | 8x
CCN(CC)CCCC(C)Nc1nc(-c2cccc(-c3cc(C(F)(F)F)ccc3F)c2)nc2c(C)cccc12 (centres unmarked) [compound 473] | 16x

Same assay, conditions: compound concentration 8 μM; fold shift of colistin MIC; nc = no changeover or no shift

Structure (SMILES) | colistin MIC shift, Ab23 at (compd concentration)
CN(C)CC(=O)n1nc(-c2ccc(Cl)c(Cl)c2)c2ccc(C(F)(F)F)cc21 [559b] | 8x
CN(C)CCCNc1nc(/C=C/c2ccc(Br)cc2)nc2cc(Cl)ccc12 [compound 301] | 8x
CCN(CC)CCCC(C)Nc1nc(/C=C/c2ccc(C(F)(F)F)cc2)nc2cc(Cl)ccc12 (racemic) [compound 307] | 4x
COc1cc(-c2nc(NCCCN(C)C)c3cccc(C)c3n2)cc(C(F)(F)F)c1 [compound 504] | 16x

Same assay, conditions: compound concentration 10 μM; fold shift of colistin MIC; nc = no changeover or no shift

Structure (SMILES) | colistin MIC shift, Ab23 at (compd concentration)
FC(F)(F)c1cc(Br)cc(-c2n[nH]c3cc(C(F)(F)F)ccc23)c1 [compound 548] | 16x
Fc1ccc(-c2n[nH]c3cc(C(F)(F)F)ccc23)cc1C(F)(F)F [compound 549] | 32x
O=C(O)Cn1cc(/C=C/c2ccc(Cl)c(Cl)c2)c2ccc(F)cc21 [compound 416] | 4x
FC(F)(F)c1ccc2c(-c3cccc(-c4cc(Cl)cc(Cl)c4)c3)n[nH]c2c1 [compound 530] | 4x
N#Cc1cccc(-c2n[nH]c3cc(F)ccc23)c1 [compound 538] | 1x
Clc1cccc(Cn2nc(-c3cccc(-c4ccccc4)c3)c3cc(Cl)ccc32)c1 [compound 533] | 1x
CCN(CC)CCCC(C)Nc1nc(-c2cccc(-c3ccccc3)c2)nc2c(Cl)cccc12 (centres unmarked) [compound 485] | 8x
Clc1ccc(-c2n[nH]c3cc(Br)ccc23)cc1Cl [compound 559] | 8x
Cc1ccc2nc(-c3cc(Br)cc(C(F)(F)F)c3)nc(NCCCN(C)C)c2c1 [compound 516] | 16x
FC(F)(F)c1ccc2[nH]nc(-c3ccc(Cl)c(Cl)c3)c2c1 [compound 555] | 32x
FC(F)(F)c1cccc(-c2cccc(-c3n[nH]c4ccc(Cl)cc34)c2)c1 [compound 525] | 1x
Cc1cccc2c(NCCCN(C)C)nc(-c3cccc(Br)c3)nc12 [compound 455] | 4x
FC(F)(F)c1ccc2c(-c3ccccc3C(F)(F)F)n[nH]c2c1 [compound 547] | 1x
